Reference: PubChem BioAssay (NCI)
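At the GI50, growth is halved. TGI denotes the concentration required for complete inhibition of growth.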

Tests used:
Assay in all cases: growth of human tumour cells (NCI), 384-well format
KM12 colon = tested on: KM12 colon
NCI-H522 lung = tested on: NCI-H522 lung
MOLT-4 leukemia = tested on: MOLT-4 leukemia
SNB-75 CNS = tested on: SNB-75 CNS
MCF7 breast = tested on: MCF7 breast
SW-620 colon = tested on: SW-620 colon
UACC-257 melanoma = tested on: UACC-257 melanoma
UO-31 renal = tested on: UO-31 renal
U251 glioblastoma = tested on: U251 glioblastoma
SF-295 CNS = tested on: SF-295 CNS
HOP-92 NSCLC = tested on: HOP-92 NSCLC
MDA-MB-435 melanoma = tested on: MDA-MB-435 melanoma
NCI-H460 NSCLC = tested on: NCI-H460 NSCLC
SK-OV-3 ovarian = tested on: SK-OV-3 ovarian
BT-549 breast = tested on: BT-549 breast
HT29 colon = tested on: HT29 colon
K-562 leukemia = tested on: K-562 leukemia
MALME-3M melanoma = tested on: MALME-3M melanoma
NCI-H226 lung = tested on: NCI-H226 lung
MDA-MB-231 breast = tested on: MDA-MB-231 breast
UACC-62 melanoma = tested on: UACC-62 melanoma
NCI-H23 lung = tested on: NCI-H23 lung
M14 melanoma = tested on: M14 melanoma
T-47D breast = tested on: T-47D breast
SNB-19 CNS = tested on: SNB-19 CNS
SF-268 CNS = tested on: SF-268 CNS
IGROV1 ovarian = tested on: IGROV1 ovarian
OVCAR-8 ovarian = tested on: OVCAR-8 ovarian
MDA-MB-468 breast = tested on: MDA-MB-468 breast

COc1ncc(Nc2ncc([C@@H](C)N3CCN(S(C)(=O)=O)CC3)cc2-c2nc(C)nc(N)n2)cc1F
TGI (KM12 colon): > 100000 nM | GI50 (NCI-H522 lung): 1630 nM | TGI (NCI-H522 lung): 19500 nM | GI50 (MOLT-4 leukemia): 15 nM | TGI (MOLT-4 leukemia): 120 nM | GI50 (SNB-75 CNS): < 10 nM | TGI (SNB-75 CNS): 48.1 nM | GI50 (MCF7 breast): 40.7 nM | TGI (MCF7 breast): 27600 nM | GI50 (SW-620 colon): 3800 nM | TGI (SW-620 colon): > 100000 nM | GI50 (UACC-257 melanoma): 488 nM | TGI (UACC-257 melanoma): 60500 nM | GI50 (UO-31 renal): 187 nM | TGI (UO-31 renal): 7210 nM | GI50 (U251 glioblastoma): 1010 nM | TGI (U251 glioblastoma): > 100000 nM | GI50 (SF-295 CNS): 49.8 nM | TGI (SF-295 CNS): 2100 nM | GI50 (HOP-92 NSCLC): 24.6 nM | TGI (HOP-92 NSCLC): 1220 nM | GI50 (MDA-MB-435 melanoma): 2310 nM | TGI (MDA-MB-435 melanoma): > 100000 nM | GI50 (NCI-H460 NSCLC): 71.1 nM | TGI (NCI-H460 NSCLC): > 100000 nM | GI50 (SK-OV-3 ovarian): 96.5 nM | TGI (SK-OV-3 ovarian): 10400 nM | GI50 (BT-549 breast): 53.3 nM | TGI (BT-549 breast): 6330 nM | GI50 (HT29 colon): 139 nM | TGI (HT29 colon): > 100000 nM | GI50 (K-562 leukemia): 4540 nM | TGI (K-562 leukemia): > 100000 nM | GI50 (MALME-3M melanoma): 1040 nM | TGI (MALME-3M melanoma): > 100000 nM | GI50 (NCI-H226 lung): 1300 nM | TGI (NCI-H226 lung): 13700 nM | GI50 (MDA-MB-231 breast): 2270 nM | TGI (MDA-MB-231 breast): > 100000 nM | GI50 (UACC-62 melanoma): 30.4 nM | TGI (UACC-62 melanoma): 1450 nM | GI50 (NCI-H23 lung): 1950 nM | TGI (NCI-H23 lung): > 100000 nM | GI50 (M14 melanoma): 1280 nM | TGI (M14 melanoma): > 100000 nM | GI50 (T-47D breast): < 10 nM | TGI (T-47D breast): 42.6 nM | GI50 (SNB-19 CNS): 4730 nM | TGI (SNB-19 CNS): > 100000 nM | GI50 (SF-268 CNS): < 10 nM | TGI (SF-268 CNS): 88.9 nM | GI50 (IGROV1 ovarian): < 10 nM | TGI (IGROV1 ovarian): 43.3 nM | GI50 (OVCAR-8 ovarian): 1440 nM | TGI (OVCAR-8 ovarian): > 100000 nM | GI50 (MDA-MB-468 breast): < 10 nM | TGI (MDA-MB-468 breast): 160 nM
